From ChEMBL document CHEMBL3885861, “Open TG-GATES”

Organism: Rattus norvegicus
Experiment: Open TG-GATES - Regimen: Daily Repeat
Format: toxicity, organism-based, Sprague-Dawley
Set-up: regimen Daily Repeat, gender Male, age 6 weeks
Conditions: in vivo, po, 80 mg/kg, route gavage, dose level Middle; for APTT / Bas / Eos / Fbg / Hb / Ht / Lym / MCH / MCHC / MCV / Mono / Neu / PT / Plat / RBC / Ret / WBC: tissue Blood; for KIDNEY_L / KIDNEY_R / KIDNEY_TOTAL: tissue Kidney; for LIVER: tissue Liver; for A/G / ALP / ALT / AST / BUN / CRE / Ca / Cl / DBIL / GLC / IP / K / LDH / Na / PL / RALB / TBIL / TC / TG / TP / gamma-GTP: tissue Plasma

Work on CCSCC[C@H](N)C(=O)O [ETHIONINE] yielded a TERMINAL_BW (72 h, time 3 day) of 221.5 g, an APTT (72 h, time 3 day) of 24.9 s and a Bas (72 h, time 3 day) of 0%. For the same compound, the Eos (72 h, time 3 day) was 1%, the Fbg (72 h, time 3 day) was 201 mg/dL and the Hb (72 h, time 3 day) was 14 g/dL. For the same compound, the Ht (72 h, time 3 day) was 41.5%, the Lym (72 h, time 3 day) was 85.4% and the MCH (72 h, time 3 day) was 20.9 pg. The MCHC (72 h, time 3 day) was 33.7%, the MCV (72 h, time 3 day) was 62.1 fL and the Mono (72 h, time 3 day) was 2.8%. The Neu (72 h, time 3 day) was 9.6%, the PT (72 h, time 3 day) was 15.3 s and the Plat (72 h, time 3 day) was 123 x10_4/uL. It also gave an RBC (72 h, time 3 day) of 669.2 x10_4/ul, a Ret (72 h, time 3 day) of 4.8% and a WBC (72 h, time 3 day) of 93.2 x10_2/uL. The KIDNEY_L (72 h, time 3 day) was 1 g, the KIDNEY_R (72 h, time 3 day) was 1 g and the KIDNEY_TOTAL (72 h, time 3 day) was 2 g. For the same compound, the LIVER (72 h, time 3 day) was 9.7 g, the A/G (72 h, time 3 day) was 1.8 and the ALP (72 h, time 3 day) was 983 IU/L. It also gave an ALT (72 h, time 3 day) of 37.8 IU/L, an AST (72 h, time 3 day) of 65.6 IU/L and a BUN (72 h, time 3 day) of 17.2 mg/dL. The CRE (72 h, time 3 day) was 0.4 mg/dL, the Ca (72 h, time 3 day) was 10.5 mg/dL and the Cl (72 h, time 3 day) was 102 meq/L. The DBIL (72 h, time 3 day) was 0.088 mg/dL, the GLC (72 h, time 3 day) was 197.8 mg/dL and the IP (72 h, time 3 day) was 8.2 mg/dL. For the same compound, the K (72 h, time 3 day) was 3.8 meq/L, the LDH (72 h, time 3 day) was 211 IU/L and the Na (72 h, time 3 day) was 141.6 meq/L. The PL (72 h, time 3 day) was 118.2 mg/dL, the RALB (72 h, time 3 day) was 3.6 g/dL and the TBIL (72 h, time 3 day) was 0.2 mg/dL. For the same compound, the TC (72 h, time 3 day) was 47.2 mg/dL, the TG (72 h, time 3 day) was 94.8 mg/dL and the TP (72 h, time 3 day) was 5.7 g/dL. It also gave a gamma-GTP (72 h, time 3 day) of 1.2 IU/L, a TERMINAL_BW ([…], time 7 day) of 252.3 g and a TERMINAL_BW ([…], time 14 day) of 307.2 g. It also gave a TERMINAL_BW ([…], time 28 day) of 355.5 g, an APTT ([…], time 7 day) of 25.7 s and a Bas ([…], time 7 day) of 0%. For the same compound, the Eos ([…], time 7 day) was 0.8%, the Fbg ([…], time 7 day) was 216.4 mg/dL and the Hb ([…], time 7 day) was 14.2 g/dL. For the same compound, the Ht ([…], time 7 day) was 41.8%, the Lym ([…], time 7 day) was 81.8% and the MCH ([…], time 7 day) was 20.8 pg. For the same compound, the MCHC ([…], time 7 day) was 33.9%, the MCV ([…], time 7 day) was 61.4 fL and the Mono ([…], time 7 day) was 2%. The Neu ([…], time 7 day) was 14.4%, the PT ([…], time 7 day) was 15 s and the Plat ([…], time 7 day) was 120.9 x10_4/uL. The RBC ([…], time 7 day) was 681.2 x10_4/ul, the Ret ([…], time 7 day) was 3.1% and the WBC ([…], time 7 day) was 117.7 x10_2/uL. It also gave an APTT ([…], time 14 day) of 24 s, a Bas ([…], time 14 day) of 0% and an Eos ([…], time 14 day) of 1%. The Fbg ([…], time 14 day) was 214.6 mg/dL, the Hb ([…], time 14 day) was 14.4 g/dL and the Ht ([…], time 14 day) was 42%. The Lym ([…], time 14 day) was 73%, the MCH ([…], time 14 day) was 20.3 pg and the MCHC ([…], time 14 day) was 34.1%. It also gave an MCV ([…], time 14 day) of 59.4 fL, a Mono ([…], time 14 day) of 3% and a Neu ([…], time 14 day) of 23%. For the same compound, the PT ([…], time 14 day) was 14.2 s, the Plat ([…], time 14 day) was 121.6 x10_4/uL and the RBC ([…], time 14 day) was 708.4 x10_4/ul. The Ret ([…], time 14 day) was 4.1%, the WBC ([…], time 14 day) was 143.7 x10_2/uL and the APTT ([…], time 28 day) was 23.9 s. The Bas ([…], time 28 day) was 0%, the Eos ([…], time 28 day) was 0.6% and the Fbg ([…], time 28 day) was 197 mg/dL. The Hb ([…], time 28 day) was 15 g/dL, the Ht ([…], time 28 day) was 43.1% and the Lym ([…], time 28 day) was 78.6%. For the same compound, the MCH ([…], time 28 day) was 19.7 pg, the MCHC ([…], time 28 day) was 34.9% and the MCV ([…], time 28 day) was 56.3 fL. It also gave a Mono ([…], time 28 day) of 2.4%, a Neu ([…], time 28 day) of 17.6% and a PT ([…], time 28 day) of 14.6 s. The Plat ([…], time 28 day) was 114.3 x10_4/uL, the RBC ([…], time 28 day) was 765.2 x10_4/ul and the Ret ([…], time 28 day) was 1.8%. The WBC ([…], time 28 day) was 115.9 x10_2/uL, the KIDNEY_L ([…], time 7 day) was 1.1 g and the KIDNEY_R ([…], time 7 day) was 1.1 g. The KIDNEY_TOTAL ([…], time 7 day) was 2.2 g, the KIDNEY_L ([…], time 14 day) was 1.2 g and the KIDNEY_R ([…], time 14 day) was 1.2 g. The KIDNEY_TOTAL ([…], time 14 day) was 2.3 g, the KIDNEY_L ([…], time 28 day) was 1.3 g and the KIDNEY_R ([…], time 28 day) was 1.3 g. The KIDNEY_TOTAL ([…], time 28 day) was 2.7 g, the LIVER ([…], time 7 day) was 10.5 g and the LIVER ([…], time 14 day) was 13.2 g. The LIVER ([…], time 28 day) was 14.1 g, the A/G ([…], time 7 day) was 1.8 and the ALP ([…], time 7 day) was 1213.6 IU/L. For the same compound, the ALT ([…], time 7 day) was 37.4 IU/L, the AST ([…], time 7 day) was 68.6 IU/L and the BUN ([…], time 7 day) was 17.6 mg/dL. It also gave a CRE ([…], time 7 day) of 0.4 mg/dL, a Ca ([…], time 7 day) of 10.4 mg/dL and a Cl ([…], time 7 day) of 103.6 meq/L. For the same compound, the DBIL ([…], time 7 day) was 0.1 mg/dL, the GLC ([…], time 7 day) was 186.6 mg/dL and the IP ([…], time 7 day) was 7.3 mg/dL. For the same compound, the K ([…], time 7 day) was 3.8 meq/L, the LDH ([…], time 7 day) was 193.2 IU/L and the Na ([…], time 7 day) was 141.6 meq/L. The PL ([…], time 7 day) was 126.6 mg/dL, the RALB ([…], time 7 day) was 3.6 g/dL and the TBIL ([…], time 7 day) was 0.2 mg/dL. The TC ([…], time 7 day) was 46.4 mg/dL, the TG ([…], time 7 day) was 122.6 mg/dL and the TP ([…], time 7 day) was 5.5 g/dL. For the same compound, the gamma-GTP ([…], time 7 day) was 0.8 IU/L, the A/G ([…], time 14 day) was 1.8 and the ALP ([…], time 14 day) was 894 IU/L. The ALT ([…], time 14 day) was 33 IU/L, the AST ([…], time 14 day) was 58 IU/L and the BUN ([…], time 14 day) was 16.6 mg/dL. For the same compound, the CRE ([…], time 14 day) was 0.4 mg/dL, the Ca ([…], time 14 day) was 10.4 mg/dL and the Cl ([…], time 14 day) was 102.4 meq/L. It also gave a DBIL ([…], time 14 day) of 0.098 mg/dL, a GLC ([…], time 14 day) of 201.8 mg/dL and an IP ([…], time 14 day) of 7.3 mg/dL. It also gave a K ([…], time 14 day) of 3.4 meq/L, an LDH ([…], time 14 day) of 187.8 IU/L and a Na ([…], time 14 day) of 141.4 meq/L. The PL ([…], time 14 day) was 141.8 mg/dL, the RALB ([…], time 14 day) was 3.8 g/dL and the TBIL ([…], time 14 day) was 0.2 mg/dL. It also gave a TC ([…], time 14 day) of 55.4 mg/dL, a TG ([…], time 14 day) of 128 mg/dL and a TP ([…], time 14 day) of 5.9 g/dL. It also gave a gamma-GTP ([…], time 14 day) of 0.8 IU/L, an A/G ([…], time 28 day) of 1.7 and an ALP ([…], time 28 day) of 747.8 IU/L. The ALT ([…], time 28 day) was 30.2 IU/L, the AST ([…], time 28 day) was 55.8 IU/L and the BUN ([…], time 28 day) was 19.4 mg/dL. The CRE ([…], time 28 day) was 0.5 mg/dL, the Ca ([…], time 28 day) was 10.2 mg/dL and the Cl ([…], time 28 day) was 105.8 meq/L. For the same compound, the DBIL ([…], time 28 day) was 0.1 mg/dL, the GLC ([…], time 28 day) was 187.4 mg/dL and the IP ([…], time 28 day) was 6.7 mg/dL. It also gave a K ([…], time 28 day) of 3.7 meq/L, an LDH ([…], time 28 day) of 220.4 IU/L and a Na ([…], time 28 day) of 142.6 meq/L. It also gave a PL ([…], time 28 day) of 138.6 mg/dL, an RALB ([…], time 28 day) of 3.8 g/dL and a TBIL ([…], time 28 day) of 0.2 mg/dL. For the same compound, the TC ([…], time 28 day) was 57.4 mg/dL, the TG ([…], time 28 day) was 124 mg/dL and the TP ([…], time 28 day) was 6 g/dL. The gamma-GTP ([…], time 28 day) was 1 IU/L.
